Here are results for 27 compounds from US8563542B2 (Cyclacel Limited, priority 2007, dated 2013).

In general, IC50 refers to the concentration needed to halve the response being measured.

PLK1, sequence (P53350 whole entry): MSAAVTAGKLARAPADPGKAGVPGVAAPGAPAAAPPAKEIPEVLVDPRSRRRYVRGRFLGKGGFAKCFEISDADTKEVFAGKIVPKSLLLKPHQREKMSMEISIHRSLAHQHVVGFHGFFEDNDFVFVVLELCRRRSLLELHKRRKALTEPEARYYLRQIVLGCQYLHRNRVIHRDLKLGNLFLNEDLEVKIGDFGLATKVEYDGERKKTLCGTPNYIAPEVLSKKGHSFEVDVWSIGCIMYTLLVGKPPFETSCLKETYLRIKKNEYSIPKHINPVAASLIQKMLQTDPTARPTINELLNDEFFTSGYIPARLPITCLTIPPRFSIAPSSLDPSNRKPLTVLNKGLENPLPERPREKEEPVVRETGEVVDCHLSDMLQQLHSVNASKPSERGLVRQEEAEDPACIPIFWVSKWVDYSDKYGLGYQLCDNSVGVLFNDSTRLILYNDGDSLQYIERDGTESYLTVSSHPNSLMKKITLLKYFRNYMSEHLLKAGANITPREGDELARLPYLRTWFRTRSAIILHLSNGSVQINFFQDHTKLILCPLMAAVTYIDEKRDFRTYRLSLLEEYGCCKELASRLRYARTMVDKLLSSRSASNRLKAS

One assay concerns the target PLK1 (Homo sapiens, UniProt P53350). The assay can be described thus: PLK1 protein kinase assay (CDC25C phosphorylation, [γ-32P]-ATP). The settings on record: Table 1; read-out: PLK1 IC50. The assay is classed as biochemical.
`COc1cc(C(=O)O)ccc1Nc1ncc2c(n1)N(C1CCCC1)C(C)CC(=O)N2C` (stereo not drawn) [compound 4, 4-(9-Cyclopentyl-5,8-dimethyl-6-oxo-6,7,8,9-tetrahydro-5H-pyrimido[4,5-b][1,4]diazepin-2-ylamino)-3-methoxy-benzoic acid]: the IC50 is below 10 µM.
For the compound `COc1cc(C(=O)O)ccc1Nc1ncc2c(n1)N(C1CCCC1)C(C)CC(=O)N2` (stereo not drawn) [compound 3, 4-(9-Cyclopentyl-8-methyl-6-oxo-6,7,8,9-tetrahydro-5H-pyrimido[4,5-b][1,4]diazepin-2-ylamino)-3-methoxy-benzoic acid], the IC50 was below 10 µM.

The same assay, now with this note: Table 2, PLK1 IC50; class symbols; read-out: PLK1 IC50.
For `COc1cc(C(=O)NC2CCCN(C)C2)ccc1Nc1ncc2c(n1)N(CC(C)C)CCC(=O)N2C` (stereo not drawn) [compound 303, 4-(9-Isobutyl-5-methyl-6-oxo-6,7,8,9-tetrahydro-5H-pyrimido[4,5-b][1,4]diazepin-2-ylamino)-3-methoxy-N-(1-methyl-piperidin-3-yl)-benzamide], the IC50 is below 1 µM.
With `CCCCN1CCC(=O)N(C)c2cnc(Nc3ccc(C(=O)NC4CCN(C)CC4)cc3OC)nc21` [compound 66, 4-(9-Butyl-5-methyl-6-oxo-6,7,8,9-tetrahydro-5H-pyrimido[4,5-b][1,4]diazepin-2-ylamino)-3-methoxy-N-(1-methyl-piperidin-4-yl)-benzamide], the IC50 was below 1 µM.
With `C=CCN1CCC(=O)N(C)c2cnc(Nc3ccc(C(=O)NC4CCN(C)CC4)cc3OC)nc21` [compound 102, 4-(9-Allyl-5-methyl-6-oxo-6,7,8,9-tetrahydro-5H-pyrimido[4,5-b][1,4]diazepin-2-ylamino)-3-methoxy-N-(1-methyl-piperidin-4-yl)-benzamide], the IC50 is below 1 µM.
Turning to `CCC1CN(C2CCCC2)c2nc(Nc3ccc(C(=O)NC4CCN(C)CC4)cc3OC)ncc2N(C)C1=O` (stereo not drawn) [compound 40, 4-(9-Cyclopentyl-7-ethyl-5-methyl-6-oxo-6,7,8,9-tetrahydro-5H-pyrimido[4,5-b][1,4]diazepin-2-ylamino)-3-methoxy-N-(1-methyl-piperidin-4-yl)-benzamide], the IC50 is below 0.1 µM.
Take `COc1cc(C(=O)NC2CC(C)(C)N(C)C(C)(C)C2)ccc1Nc1ncc2c(n1)N(c1ccccc1OC)CCC(=O)N2C` [compound 278, 3-Methoxy-4-[9-(2-methoxy-phenyl)-5-methyl-6-oxo-6,7,8,9-tetrahydro-5H-pyrimido[4,5-b][1,4]diazepin-2-ylamino]-N-(1,2,2,6,6-pentamethyl-piperidin-4-yl)-benzamide]: the IC50 is below 10 µM.
Still for that read-out and setting: the figure for `CONC(=O)c1ccc(Nc2ncc3c(n2)N(C2CCCC2)CC2(CC2)C(=O)N3C)c(OC)c1` [compound 190, 4-(9-Cyclopentyl-5-methyl-6-oxo-6,7,8,9-tetrahydro-5H-spiro[pyrimido[4,5-b][1,4]diazepin-3,1′-cyclopropane]-2-ylamino)-3,N-dimethoxy-benzamide] is below 0.1 µM; for `COc1ccc(C(=O)NC2CCN(Cc3ccccc3)C2)cc1Nc1ncc2c(n1)N(C1CCCC1)CCC(=O)N2C` (stereo not drawn) [compound 265, N-(1-Benzyl-pyrrolidin-3-yl)-3-(9-cyclopentyl-5-methyl-6-oxo-6,7,8,9-tetrahydro-5H-pyrimido[4,5-b][1,4]diazepin-2-ylamino)-4-methoxy-benzamide] it is below 1 µM.
On to `COc1cc(C(=O)NC2CCN(C)CC2)ccc1Nc1ncc2c(n1)N(C(C)C)CCC(=O)N2C` [compound 67, 4-(9-Isopropyl-5-methyl-6-oxo-6,7,8,9 tetrahydro-5H-pyrimido[4,5-b][1,4]diazepin-2-ylamino)-3-methoxy-N-(1-methyl-piperidin-4-yl)-benzamide], for which the IC50 was below 0.1 µM.
Regarding `COc1cc(C(=O)NC2CN3CCC2CC3)ccc1Nc1ncc2c(n1)N(c1ccccc1OC)CCC(=O)N2C` (stereo not drawn) [compound 279, N-(1-Aza-bicyclo[2.2.2]oct-3-yl)-3-methoxy-4-[9-(2-methoxy-phenyl)-5-methyl-6-oxo-6,7,8,9-tetrahydro-5H-pyrimido[4,5-b][1,4]diazepin-2-ylamino]-benzamide], the IC50 is below 10 µM.
For the compound `COc1cc(C(=O)O)ccc1Nc1ncc2c(n1)N(CC1CC1)CC1(CC1)C(=O)N2C` [compound 230, 4-(9-Cyclopropylmethyl-5-methyl-6-oxo-6,7,8,9-tetrahydro-5H-pyrimido[4,5-b][1,4]diazepin-3,1′-cyclopropane-2-ylamino)-3-methoxy-benzoic acid], the IC50 was below 1 µM.
The same measure, in the same setting: under `COc1ccc(C(=O)NCCc2c[nH]cn2)cc1Nc1ncc2c(n1)N(C1CCCC1)CCC(=O)N2C` [compound 267, 3-(9-Cyclopentyl-5-methyl-6-oxo-6,7,8,9-tetrahydro-5H-pyrimido[4,5-b][1,4]diazepin-2-ylamino)-N-[2-(1H-imidazol-4-yl)-ethyl]-4-methoxy-benzamide] stands below 1 µM; under `COc1cc(C(=O)NC2CCN(C)CC2)ccc1Nc1ncc2c(n1)N(C1CC1)CCC(=O)N2C` [compound 207, 4-(9-Cyclopropyl-5-methyl-6-oxo-6,7,8,9-tetrahydro-5H-pyrimido[4,5-b][1,4]diazepin-2-ylamino)-3-methoxy-N-(1-methyl-piperidin-4-yl)-benzamide], below 10 µM; under `COc1cc(C(=O)NCC(C)(C)CN(C)C)ccc1Nc1ncc2c(n1)N(C1CCCC1)CCC(=O)N2C` [compound 165, 4-(9-Cyclopentyl-5-methyl-6-oxo-6,7,8,9-tetrahydro-5H-pyrimido[4,5-b][1,4]diazepin-2-ylamino)-N-(3-dimethylamino-2,2-dimethyl-propyl)-3-methoxy-benzamide], below 0.1 µM.
Regarding `COc1cc(C(=O)NCC(C)(C)CN(C)C)ccc1Nc1ncc2c(n1)N(CC1CC1)CCC(=O)N2C` [compound 246, 4-(9-Cyclopropylmethyl-5-methyl-6-oxo-6,7,8,9-tetrahydro-5H-pyrimido[4,5-b][1,4]diazepin-2-ylamino)-N-(3-dimethylamino-2,2-dimethyl-propyl)-3-methoxy-benzamide], the IC50 was below 1 µM.
For the compound `CONC(=O)c1ccc(OC)c(Nc2ncc3c(n2)N(C2CCCC2)CCC(=O)N3C)c1` [compound 264, 3-(9-Cyclopentyl-5-methyl-6-oxo-6,7,8,9-tetrahydro-5H-pyrimido[4,5-b][1,4]diazepin-2-ylamino)-4,N-dimethoxy-benzamide], the IC50 was below 1 µM.
As for `CONC(=O)c1ccc(Nc2ncc3c(n2)N(C2CCCC2)CCC(=O)N3C)c(OC)c1` [compound 169, 4-(9-Cyclopentyl-5-methyl-6-oxo-6,7,8,9-tetrahydro-5H-pyrimido[4,5-b][1,4]diazepin-2-ylamino)-3,N-dimethoxy-benzamide], the IC50 was below 1 µM.
Take `COc1cc(C(=O)NC2CCN(C)CC2)ccc1Nc1ncc2c(n1)N(c1ccccc1C)CCC(=O)N2C` [compound 308, 3-Methoxy-4-(5-methyl-6-oxo-9-o-tolyl-6,7,8,9-tetrahydro-5H-pyrimido[4,5-b][1,4]diazepin-2-ylamino)-N-(1-methyl-piperidin-4-yl)-benzamide]: the IC50 is below 10 µM.
Same read-out and setting: under `COc1cc(C(=O)NCCOCCO)ccc1Nc1ncc2c(n1)N(C1CCCC1)CCC(=O)N2C` [compound 168, 4-(9-Cyclopentyl-5-methyl-6-oxo-6,7,8,9-tetrahydro-5H-pyrimido[4,5-b][1,4]diazepin-2-ylamino)-N-[2-(2-hydroxy-ethoxy)-ethyl]-3-methoxy-benzamide] stands below 1 µM; under `COc1cc(C(=O)NCCc2c[nH]cn2)ccc1Nc1ncc2c(n1)N(C1CCCC1)CC(C)(C)C(=O)N2C` [compound 200, 4-(9-Cyclopentyl-5,7,7-trimethyl-6-oxo-6,7,8,9-tetrahydro-5H-pyrimido[4,5-b][1,4]diazepin-2-ylamino)-N-[2-(1H-imidazol-4-yl)-ethyl]-3-methoxy-benzamide], below 0.1 µM.
As for `COc1cc(C(=O)NC2CCN(Cc3ccccc3)CC2)ccc1Nc1ncc2c(n1)N(C1CCCC1)CCC(=O)N2C` [compound 157, N-(1-Benzyl-piperidin-4-yl)-4-(9-cyclopentyl-5-methyl-6-oxo-6,7,8,9-tetrahydro-5H-pyrimido[4,5-b][1,4]diazepin-2-ylamino)-3-methoxy-benzamide], the IC50 is below 0.1 µM.
As for `COc1cc(C(=O)NC2CCCN(C)C2)ccc1Nc1ncc2c(n1)N(c1ccccc1C)CCC(=O)N2C` (stereo not drawn) [compound 309, 3-Methoxy-4-(5-methyl-6-oxo-9-o-tolyl-6,7,8,9-tetrahydro-5H-pyrimido[4,5-b][1,4]diazepin-2-ylamino)-N-(1-methyl-piperidin-3-yl)-benzamide], the IC50 is below 10 µM.
On to `COc1cc(C(=O)NC2CCCN(C)C2)ccc1Nc1ncc2c(n1)N(CC1CC1)CCC(=O)N2C` (stereo not drawn) [compound 245, 4-(9-Cyclopropylmethyl-5-methyl-6-oxo-6,7,8,9-tetrahydro-5H-pyrimido[4,5-b][1,4]diazepin-2-ylamino)-3-methoxy-N-(1-methyl-piperidin-3-yl)-benzamide], for which the IC50 was below 1 µM.

Still in this assay, the particulars now being: Table 3; read-out: PLK1 IC50.
With `COc1cc(C(=O)N[C@H]2CC[C@@H](N3CCN(C)CC3)CC2)ccc1Nc1ncc2c(n1)N(C1CCCC1)CC1(CC1)C(=O)N2C` [Compound 385, 4-(9′-cyclopentyl-5′-methyl-6′-oxo-5′,6′,8′,9′-tetrahydrospiro[cyclopropane-1,7′-pyrimido[4,5-b][1,4]diazepine]-2′-ylamino)-N-((cis)-4-(4-methylpiperazin-1-yl)cyclohexyl)-3-methoxybenzamide], the IC50 was below 0.1 µM.
The same measure, in the same setting: the figure for `COc1cc(C(=O)N[C@H]2CC[C@@H](N3CCOCC3)CC2)ccc1Nc1ncc2c(n1)N(C1CCCC1)CC1(CC1)C(=O)N2C` [Compound 391, 4-(9′-cyclopentyl-5′-methyl-6′-oxo-5′,6′,8′,9′-tetrahydrospiro[cyclopropane-1,7′-pyrimido[4,5-b][1,4]diazepine]-2′-ylamino)-3-methoxy-N-((cis)-4-morpholinocyclohexyl)benzamide] is below 0.1 µM.

The same assay, now with this note: Table 4; read-out: PLK1 IC50.
Turning to `COc1cc(C(=O)NC2CCN(C)CC2)ccc1Nc1ncc2c(n1)N(C1CCCC1)CC1(CCC1)C(=O)N2C` [WO 2007/095188 [I-64], reference compound], the IC50 is below 0.1 µM.
